From the SangsterLogP compilation
Values belong to the compound of their own block, whether it stands above or below them.

Assays:
[1] = method code SF-HPLC, from DOI: 10.1021/jf0623440, PMID: 17263479
[2] = method code SF-LC/MS, from DOI: 10.1002/rcm.3594, PMID: 18543375; conditions: pH 7.4
[3] = method code SF-CR, from DOI: 10.1042/bj1780443, PMID: 109087; conditions: pH 7.4
[4] = method code SF-AS, from DOI: 10.1093/ajhp/38.9.1308, PMID: 7282713
[5] = method code SF, from DOI: 10.1002/jps.2600641111, PMID: 1195110; conditions: pH 7.4
[6] = method code SF-AS, from DOI: 10.2116/analsci.8.761; conditions: pH 6.0
[7] = method code SF-HPLC, from Hairsine, P. (1997). Direct measurement of partition coefficient by shake flask technique and gradient elution HPLC. Lab. Practice, 38(11)73-75.
[8] = method code SF-AS, from DOI: 10.1016/j.ejmech.2004.01.002, PMID: 15072846; conditions: pH 7.4
[9] = method code …, from Buur, A., & Bundgaard, H. (1984). Prodrugs of 5-fluorouracil. II. Hydrolysis kinetics, bioactivation, solubility and lipophilicity of N-alkoxycarbonyl derivatives of 5-fluorouracil. Arch. Pharm. …; conditions: pH 4.0
[10] = method code SF-AS, from Halmekoski, J.; Hannikainen, H. (1964). Rm values of hydroxy-substituted benzoic acids and partition coefficients of the acids between water and aliphatic alcohols. Suomen Kemist. B, 37, 221-226.
[11] = method code SF-RC, from DOI: 10.1038/sj.bjc.6601862, PMID: 15150578
[12] = method code SF-AS, from DOI: 10.1248/cpb.28.85; conditions: pH 2.0
[13] = method code SF-HPLC, from DOI: 10.1016/s0021-9673(01)81976-2, PMID: 4066822
[14] = method code SF-AS, from DOI: 10.1111/j.2042-7158.1981.tb11766.x; conditions: pH 1.0
[15] = method code SF-AS, from DOI: 10.1016/s0022-3565(25)24763-2, PMID: 2019981; conditions: pH 7.4
[16] = method code SF, from DOI: 10.1021/jm020367+, PMID: 12502371
[17] = not given; remark: listed apart in the source
[18] = method code SF-AS, from DOI: 10.1148/radiology.194.3.7862981, PMID: 7862981
[19] = method code SF-HPLC, from DOI: 10.1002/ps.2780370106; conditions: pH 0.0
[20] = method code SF-HPLC, from DOI: 10.1021/je900271h
[21] = not given; remark: listed apart in the source
[22] = method code SF, from DOI: 10.1080/09553009014551091, PMID: 1970998; conditions: pH 7.4
[23] = method code SF-HPLC, from PMID: 11745753; conditions: pH 7.4
[24] = method code SF-GLC, from DOI: 10.1039/an9709500763, PMID: 5449617
[25] = not given; remark: listed apart in the source
[26] = method code SF-GLC, from DOI: 10.1016/0378-4274(82)90116-3, PMID: 7090003
[27] = not given; remark: listed apart in the source
[28] = method code SF-GLC, from PMID: 6629728; conditions: pH 7.4
[29] = method code SF-AS, from DOI: 10.1016/j.jhazmat.2007.11.074, PMID: 18180104
[30] = method code SF-AS,RC, from DOI: 10.2307/3575891, PMID: 7122830
[31] = method code SF, from DOI: 10.1038/248065a0, PMID: 4150456; conditions: pH 9.0
[32] = method code SF-AS, from DOI: 10.1016/0006-2952(74)90620-0, PMID: 4822742; conditions: pH 7.4
[33] = method code SF, from DOI: 10.1002/jbm.820150603, PMID: 7309762
[34] = method code SF-AS, from DOI: 10.1016/0378-5173(80)90117-9
[35] = not given; remark: listed apart in the source
[36] = method code SF-GLC, from DOI: 10.1016/s0022-3565(25)30310-1, PMID: 1181405; conditions: pH 7.4
[37] = method code SF-AS, from DOI: 10.1007/s0012800114, PMID: 10885996
[38] = not given; remark: listed apart in the source
[39] = not given; remark: listed apart in the source
[40] = method code SF-RC, from Audran, M.; Chanal, J.; Marignan, R.; Cousse, H. (1984). Correlations between structure and pharmacokinetic parameters in a series of cresotinamides. International Journal of Pharmaceutics, …; conditions: pH 1.0
[41] = method code SF-AS, from DOI: 10.1248/cpb.26.2824
[42] = method code SF-HPLC, from DOI: 10.1002/jps.2600750520, PMID: 3735094; conditions: pH 4.0
[43] = method code SF-HPLC, from PMID: 3268116; conditions: pH 7.0
[44] = method code SF-RC,FL, from DOI: 10.1016/0006-2952(81)90006-x, PMID: 6456004
[45] = not given; remark: listed apart in the source
[46] = not given; remark: listed apart in the source
[47] = method code SF-AS, from DOI: 10.1021/es00082a014; conditions: pH 7.0
[48] = not given; remark: listed apart in the source

SMILES: O=[N+]([O-])/C=C1/NCCN1Cc1cnc(Cl)s1
logP [1]: 0.03

SMILES: c1ccc2[nH]cnc2c1
logD [2]: 1.53

SMILES: CC(=O)OCCn1c([N+](=O)[O-])cnc1C
logD [5]: 0.3

SMILES: COc1ccccc1C(=O)O
logP [7]: 1.62

SMILES: O=C(Cn1ccnc1[N+](=O)[O-])NCCF
logP [11]: -0.8

SMILES: O=C(O)COc1ccccc1
logD [12]: 1.35

SMILES: COC1=C(OC)C(=O)C=CC1=O
logP [13]: 0.34

SMILES: Nc1n[n+]([O-])c2cc(Cl)ccc2[n+]1[O-]
logP [16]: 0.46

SMILES: O=[N+]([O-])c1nccn1C[C@H](O)[C@H](O)CF
logP [18]: -0.77

SMILES: CC(C)OC(C)(C)C
logP [21]: 2.14

SMILES: COP(=O)(OC)Oc1ccc([N+](=O)[O-])cc1
logP [24]: 1.33

SMILES: O=NN(CCF)C(=O)NC1CCS(=O)(=O)CC1
logP [25]: -0.41

SMILES: C=C(C)C(=O)OC(C)C
logP [26]: 2.25

SMILES: Cc1ncc(COP(=O)(O)O)c(C=O)c1O
logP [27]: 0.37

SMILES: C1CCC(C2CO2)CC1 (centres undefined)
logD [28]: 2.43

SMILES: COCC(O)Cn1cc(Br)nc1[N+](=O)[O-] (centres undefined)
logP [30]: 0.46

SMILES: CNC(=S)NCCSCc1c[nH]cn1
logD [31]: 0.16

SMILES: C=C(C)C(=O)OCCCC
logP [33]: 2.6

SMILES: Cc1ccc([N+](=O)[O-])cc1N
logP [35]: 1.87

SMILES: CCCCCOC(=O)NC
logD [36]: 1.96

SMILES: O=[N+]([O-])c1nccn1[C@@H]1O[C@H](CO)[C@@H](O)[C@H]1O
logP [38]: -1.15

SMILES: C1=CC=CCC=C1
logP [39]: 2.63

SMILES: O=C(OCCCl)n1cc(F)c(=O)[nH]c1=O
logD [42]: 0.02

SMILES: NCCc1ccc(O)c(O)c1
logP [44]: -0.97

SMILES: COP(=S)(OC)Oc1cc(Cl)c(Cl)cc1Cl
logP [45]: 4.67

SMILES: COC(=O)c1nc(Cl)c(Cl)c(N)c1Cl
logP [46]: 2.3

SMILES: Cc1ccc(N)cc1C
logD [47]: 1.86

SMILES: CCCCCCCBr
logP [48]: 4.44

Further lines, results first:

logD [3]: 2.4
SMILES: CCc1ccc(O)cc1

logP [4]: 1
SMILES: NNc1nncc2ccccc12

logD [6]: 0.48
SMILES: OCc1ccc(O)cc1

logD [8]: 0.97
SMILES: NC(=O)N/N=C/C=C/c1ccc([N+](=O)[O-])o1

logD [9]: 0.11
SMILES: CCOC(=O)n1c(=O)[nH]cc(F)c1=O

logP [10]: 1.12
SMILES: O=C(O)c1cc(O)ccc1O

logP: 2.38
SMILES: COc1ccc([N+](=O)[O-])c(C)c1

logD [14]: 1.56
SMILES: O=C(O)c1ccc(O)cc1

logD [15]: 0.6
SMILES: CCc1occc(=O)c1O

logP [17]: 1.9
SMILES: O=C(O)c1ccc([N+](=O)[O-])cc1

logD [19]: 0.73
SMILES: NC(=O)Nc1ccc(C(=O)O)cc1

logP [20]: 1.46
SMILES: COc1cc(C(=O)O)ccc1O

logD [22]: -0.52
SMILES: O=C(NCCO)C(F)(F)Cn1ccnc1[N+](=O)[O-]

logD [23]: 1.48
SMILES: COC(=O)c1ccc(N)cc1

logP [29]: 1.98
SMILES: CNc1ccc([N+](=O)[O-])cc1

logD [32]: 1.08
SMILES: CC1=NS(=O)(=O)c2cc(Cl)ccc2N1

logP [34]: 1.95
SMILES: CCOc1ccc(O)cc1

logP [37]: 0.35
SMILES: CS(=O)(=O)c1ccc(C=O)cc1

logD [40]: 2.12
SMILES: Cc1cccc(C(N)=O)c1O

logP [41]: 2.78
SMILES: Cc1ccc(O)c(C(=O)O)c1

logD [43]: 2.27
SMILES: c1ccc2[nH]ccc2c1
